Among the data in US8436154B2, “Crystallizing method of erythromycin” (Sunshine Lake Pharma Co., Ltd., priority 2008, dated 2013) are microbiological titre values, retold here.

Where two headings read alike, the source gives them in different places.

Assay [1] in a line: microbiological titre of erythromycin crystals. In kind it is cell-based. The following applies: dried erythromycin crystals recrystallized from dichloromethane-containing solvent.
The conditions of assay [2]: erythromycin crystals of CN1513864A, recrystallized from acetone and water; cited from earlier work.

As for erythromycin [Example 1], in assay [1], the microbiological titre came to 948 μ/mg.

In assay [1], erythromycin [Example 5] had a microbiological titre of 943 μ/mg.

Regarding erythromycin [erythromycin crystals], the microbiological titre entry in assay [2] was “less than 930 μ/mg”.

In assay [1], erythromycin [Example 2] had a microbiological titre of 955 μ/mg.

In assay [1], erythromycin [Example 3] yielded a microbiological titre of 941 μ/mg.

Substance erythromycin [Example 4] gave a microbiological titre in assay [1] of 946 μ/mg.
